Ki data for three compounds are collected here from US7713985B2, “Adenosine Aa2 receptor antagonists” (Schering Corporation, priority 2006, dated 2010).

SMILES strings stand for the structures.

In this assay the target is T1, Human A2a Adenosine Receptor (Homo sapiens, UniProt P29274).
T1 construct: purchased Receptor Biology, Inc., Beltsville, Md; RB-HA2a
Kind of assay: Human adenosine A2a receptor competition binding assay. As to conditions: [3H]-SCH 58261 displacement, human A2a membranes. On the procedure: Human Adenosine A2a and A1 Receptor Competition Binding Assay Protocol
A2a: Human A2a Adenosine Receptor membranes, Catalog #RB-HA2a, Receptor Biology, Inc., Beltsville, Md. Dilute to 17 μg/100 μl in membrane dilution buffer (see below).
Membrane dilution buffer: Dulbecco's Phosphate Buffered Saline (Gibco/BRL)+10 mM MgCl2.
Compound Dilution Buffer: Dulbecco's Phosphate Buffered Saline (Gibco/BRL)+10 mM MgCl2 supplemented with 1.6 mg/ml methyl cellulose and 16% DMSO. Prepared fresh daily.
A2a: [3H]-SCH 58261, custom synthesis, AmershamPharmacia Biotech, Piscataway, N.J. Stock is prepared at 1 nM in membrane dilution buffer. Final assay concentration is 0.5 nM.
A2a: To determine non-specific binding, add 100 nM CGS 15923 (RBI, Natick, Mass.). Working stock is prepared at 400 nM in compound dilution buffer.
Prepare 1 mM stock solutions of compounds in 100% DMSO. Dilute in compound dilution buffer. Test at 10 concentrations ranging from 3 μM to 30 pM. Prepare working solutions at 4× final concentration in compound dilution buffer.
Perform assays in deep well 96 well plates. Total assay volume is 200 μl. Add 50 μl compound dilution buffer (total ligand binding) or 50 μl CGS 15923 working solution (A2a non-specific binding) or 50 μl NECA working solution (A1 non-specific binding) or 50 μl of drug working solution. Add 50 μl ligand stock ([3H]-SCH 58261 for A2a, [3H]-DPCPX for A1). Add 100 μl of diluted membranes containing the appropriate receptor. Mix. Incubate at room temperature for 90 minutes. Harvest using a Brandel cell harvester onto Packard GF/B filter plates. Add 45 μl Microscint 20 (Packard), and count using the Packard TopCount Microscintillation Counter. Determine IC50 values by fitting the displacement curves using an iterative curve fitting program (Excel). Determine Ki values using the Cheng-Prusoff equation.

T1 sequence (P29274 whole entry): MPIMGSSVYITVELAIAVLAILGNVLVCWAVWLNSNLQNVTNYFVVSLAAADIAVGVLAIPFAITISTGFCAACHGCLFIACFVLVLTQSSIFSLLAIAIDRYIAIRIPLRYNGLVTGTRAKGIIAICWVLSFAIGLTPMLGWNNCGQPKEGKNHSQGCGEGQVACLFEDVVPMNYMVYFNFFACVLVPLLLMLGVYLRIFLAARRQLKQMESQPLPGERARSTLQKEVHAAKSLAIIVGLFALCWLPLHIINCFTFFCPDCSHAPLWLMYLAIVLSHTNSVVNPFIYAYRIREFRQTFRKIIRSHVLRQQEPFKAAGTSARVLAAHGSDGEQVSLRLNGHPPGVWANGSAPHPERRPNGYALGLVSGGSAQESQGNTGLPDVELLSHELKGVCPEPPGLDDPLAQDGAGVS

By Ki is commonly meant a measure of affinity in units of concentration, obtained from inhibition or displacement. In the case of `Nc1nc2ccccc2c2nn(Cc3cccc(Cl)c3)c(=O)n12` [Example 13], the inhibition constant (Ki) was 4.7 nM.

For the compound `Nc1nc2ccccc2c2nn(Cc3cccc(F)c3)c(=O)n12` [Example 12], the affinity corresponds to a Ki of 12.2 nM.

With `Nc1nc2ccccc2c2nn(Cc3c(Cl)cccc3Cl)c(=O)n12` [Example 8], the affinity, expressed as Ki, was 12 nM.
